In article PMC3982047 (Nature, 2014) one finds Kd data, which are given here for four compounds.

In test [1] the target is T1, AtNRT1.1 (Arabidopsis thaliana, UniProt Q05085).
T1 sequence (Q05085 1-590): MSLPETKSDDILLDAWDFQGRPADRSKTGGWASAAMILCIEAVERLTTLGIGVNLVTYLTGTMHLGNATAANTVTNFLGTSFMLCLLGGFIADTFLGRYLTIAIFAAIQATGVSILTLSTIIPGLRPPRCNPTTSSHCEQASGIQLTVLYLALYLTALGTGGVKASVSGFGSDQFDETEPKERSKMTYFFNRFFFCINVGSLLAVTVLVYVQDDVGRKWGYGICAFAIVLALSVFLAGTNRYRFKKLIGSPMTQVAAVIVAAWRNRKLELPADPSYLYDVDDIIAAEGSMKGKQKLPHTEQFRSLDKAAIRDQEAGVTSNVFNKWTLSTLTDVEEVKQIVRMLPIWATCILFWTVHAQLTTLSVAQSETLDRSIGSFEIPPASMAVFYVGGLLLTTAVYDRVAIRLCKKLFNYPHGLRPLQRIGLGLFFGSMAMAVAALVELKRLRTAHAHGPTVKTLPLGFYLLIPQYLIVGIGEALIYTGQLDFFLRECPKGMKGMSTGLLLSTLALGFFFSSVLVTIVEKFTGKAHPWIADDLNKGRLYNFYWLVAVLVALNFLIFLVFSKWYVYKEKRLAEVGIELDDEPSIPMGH
As to the kind of experiment: microscale thermophoresis. Type of test: binding. (MST reads how a fluorescent partner responds to local heating, with and without ligand.)

The target of the next test is PepTSo (Shewanella oneidensis, UniProt Q8EKT7). Description: microscale thermophoresis. The format is binding.
The target of test [2] is AtNRT1.1 (Arabidopsis thaliana, UniProt Q05085, T101D). As to the kind of experiment: microscale thermophoresis. Type of test: binding.
Chain of AtNRT1.1 (Arabidopsis thaliana, UniProt Q05085, T101D) (Q05085 whole entry T101D): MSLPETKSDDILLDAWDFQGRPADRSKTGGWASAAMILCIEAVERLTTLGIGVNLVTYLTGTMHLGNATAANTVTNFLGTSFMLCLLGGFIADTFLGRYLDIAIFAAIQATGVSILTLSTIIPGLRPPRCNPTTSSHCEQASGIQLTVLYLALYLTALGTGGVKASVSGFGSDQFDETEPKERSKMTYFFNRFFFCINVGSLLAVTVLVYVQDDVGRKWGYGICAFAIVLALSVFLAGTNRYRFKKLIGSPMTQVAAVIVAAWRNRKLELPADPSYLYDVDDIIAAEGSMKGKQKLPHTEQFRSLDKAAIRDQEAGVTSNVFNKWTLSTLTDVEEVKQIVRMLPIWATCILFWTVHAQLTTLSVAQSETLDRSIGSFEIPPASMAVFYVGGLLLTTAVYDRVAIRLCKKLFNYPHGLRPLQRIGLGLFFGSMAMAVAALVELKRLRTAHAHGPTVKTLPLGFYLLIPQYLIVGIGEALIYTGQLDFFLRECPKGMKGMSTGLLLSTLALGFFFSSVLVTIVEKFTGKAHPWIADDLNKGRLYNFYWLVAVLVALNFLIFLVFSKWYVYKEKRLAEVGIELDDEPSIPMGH
In test [3] the target is AtNRT1.1 (Arabidopsis thaliana, UniProt Q05085). Description: biochemical.
In test [4] the target is PepTSo, peptide transporter from Shewanella oniendensis (Shewanella oniendensis (so in the source)). As to the kind of experiment: MST.

Peptide text beside a SMILES is read from it.

On to `[O-][Cl+2]([O-])O` [chlorate], for which the Kd at AtNRT1.1 [1] was roughly 5000 µM.

Turning to `C[C@H](N)C(=O)N[C@@H](C)C(=O)O` [Ala-Ala] (H-Ala-Ala-OH), the Kd on PepTSo was roughly 35 µM.

On to `O=[N+]([O-])O` [nitrate], for which the equilibrium dissociation constant (Kd) on AtNRT1.1 [2] worked out at 1000 ± 120 µM; at AtNRT1.1 [3], 1000 ± 150 µM.

In the case of di-peptide Ala-Ala, the dissociation constant (Kd) in test [4] was 35 µM.

As usually defined, the Kd is the free concentration of one partner at which half of the binding sites on the other are occupied at equilibrium, for simple one-to-one binding. A high value points to a looser complex.
